Test results reported in article PMC9905731, “PIN1 and PIN4 inhibition via parvulin impeders Juglone, PiB, ATRA, 6,7,4′-THIF, KPT6566, and EGCG thwarted hepatitis B virus replication” (Frontiers in Microbiology, 2023).

Test system: HBV-infected HepG2-hNTCP-C9 cells
Test: HBV replication in HBV-infected HepG2-hNTCP-C9 cells
Type: cell-based, hepatitis B virus
Conditions: 9 days; 20 μM Juglone or PiB, 30 μM ATRA, 6,7,4′-THIF or KPT6566, 40 μM EGCG; vs solvent
Experimental: Figure 9 PIN1 and PIN4 Inhibition via Juglone, PiB, ATRA, 6,7,4′-THIF, KPT6566, and EGCG abrogate HBV replication in HBV-infected cells. […] HepG2-hNTCP-C9 cells were seeded and infected, as described previously, in the “Material and Methods” section. Infected cells (lanes 2–3) were treated with solvent (lane 2) or 20 μM Juglone, 20 μM PiB, 30 μM ATRA, 30 μM 6,7,4′-THIF, 30 μM KPT6566, 40 μM EGCG (lane 3) for 9 days, and lysates were subjected to SDS-PAGE and immunoblotting, NAGE, Northern blotting, and Southern blotting. The shown data are representation from three independent experiments. The statistical significance was determined by using Student’s t-test. *p < 0.05, **p < 0.005, ***p < 0.0005 relative to the corresponding control.
HBV inoculum was harvested from HepAD38 cells for infection experiments. HepAD38 cells in DMEM plus 10% FBS, 1% PS, G418 (0.5 mg/ml), insulin (5 μg/ml), and hydrocortisone hemisuccinate (50 μM) were grown, and on every third day after passage of day 10th (till 31st), the media supernatants were collected and concentrated via 20 to 60% sucrose gradient by ultra-centrifugation (Beckman Coulter Optima L-90 K) method, as described previously ([Saeed et al., 2019], [2021]). The HBV DNAs from the pelleted precipitant were examined by Southern blotting. […] The following day, the cell media was refreshed after PBS washing and maintained in 2.5% DMSO containing media. On the 9th day post-infection, the cellular lysates were prepared and subjected to SDS-PAGE and immunoblotting, core particle immunoblotting, and Southern blot analysis. At 5 days post-infection, HBV RNA levels were determined by Northern blotting.
Juglone (Sigma Aldrich, AG17724), PiB (Calbiochem, CAS 64005–90-9), ATRA (Sigma-Aldrich, R2625), 6,7,4′-THIF (Chem Faces, CFN90796), KPT6566 (ProbeChem, PC-61182), or EGCG (Sigma Aldrich, 989–51-5) was treated to Huh7, HepAD38, HepG2, HepG2.2.15, and HepG2-hNTCP-C9 cells. Prior to the conduct of experiments, the cytotoxic effects of Juglone, PiB, ATRA, 6,7,4′-THIF, KPT6566, or EGCG were examined via MTT assay (3-[4,5-dimethylththiazol-2-yl]-2,5-diphenyltetrazolium bromide), as described previously ([Bichko et al., 1985]; [Piracha et al., 2018], [2020]; [Saeed et al., 2019], [2021]). Briefly, selected HCC cell lines (HepG2, Huh7, HepG2.2.15, and HepAD38) in 6 cm plates were treated with Juglone (20 μM), PiB (20 μM), ATRA (30 μM), 6,7,4′-THIF (30 μM), KPT6566 (30 μM), or EGCG (40 μM) at transfection or at the time of TC removal from HepAD38 cells. Juglone (20 μM in ethanol, Sigma Aldrich, AG17724) was treated to 1.3 mer HBV-WT transfected Huh7 cells (Figure 3A) or TC-depleted HepAD38 cells (Figure 3B) or to 1.3 mer HBV-WT transfected HepG2 (Figure 3C) or HepG2.2.15 (Figure 3D) cells for 72 h. PiB (20 μM in DMSO, Calbiochem, CAS 64005-90-9) was treated for 72 h to 1.3 mer HBV-WT transfected Huh7 cells (Figure 4A) or TC-depleted HepAD38 cells (Figure 4B) or to 1.3 mer HBV-WT transfected HepG2 cells (Figure 4C) or HepG2.2.15 (Figure 4D) cells. To examine the effects on HBV replication, ATRA (30 μM in DMSO, R2625 Sigma-Aldrich) was treated for 72 h to 1.3 mer HBV-WT transfected Huh7 cells (Figure 5A) or TC-depleted HepAD38 cells (Figure 5) or to 1.3 mer HBV-WT transfected HepG2 cells (Figure 5C) or HBV replicating HepG2.2.15 (Figure 5D) cells. 6,7,4′-THIF (30 μM in DMSO, CFN90796 Chem Faces) was treated for 72 h to 1.3 mer HBV-WT transfected Huh7 cells (Figure 6A) or TC-depleted HepAD38 cells (Figure 6B) or to 1.3 mer HBV-WT transfected HepG2 cells (Figure 6C) or HBV replicating HepG2.2.15 (Figure 6D) cells. KPT-6566 (30 μM in DMSO, PC-61182 ProbeChem) was treated for 72 h to 1.3 mer HBV-WT transfected Huh7 cells (Figure 7A) or TC-depleted HepAD38 cells (Figure 7B) or to 1.3 mer HBV-WT transfected HepG2 cells (Figure 7C) or HBV replicating HepG2.2.15 (Figure 7D) cells. […]

Compound	HBV replication in infected cells (HBc, HBV transcripts, core particles, HBV DNA)
O=c1c(-c2ccc(O)cc2)coc2cc(O)c(O)cc12 [6,7,4′-THIF, 6,7-dihydroxy-3-(4-hydroxyphenyl)-4H-chromen-4-one]	restricted HBV replication
CC1=C(/C=C/C(C)=C/C=C/C(C)=C/C(=O)O)C(C)(C)CCC1 [ATRA, All-trans-retinoic acid]	restricted HBV replication
O=C(O[C@@H]1Cc2c(O)cc(O)cc2O[C@@H]1c1cc(O)c(O)c(O)c1)c1cc(O)c(O)c(O)c1 [EGCG, Epigallocatechin gallate]	restricted HBV replication
O=C1C=CC(=O)c2c(O)cccc21 [Juglone, 5-hydroxyl-1,4-naphthoquinone]	restricted HBV replication
CC(C)(C)c1ccc(S(=O)(=O)N=C2C=C(SCC(=O)O)C(=O)c3ccccc32)cc1 [KPT6566, 2-[[4-[[[4-(1,1-dimethylethyl)phenyl]sulfonyl]imino]-1,4-dihydro-1-oxo-2-naphthalenyl]thio] acetic acid]	restricted HBV replication
CCOC(=O)CN1C(=O)c2ccc3c4c(ccc(c24)C1=O)C(=O)N(CC(=O)OCC)C3=O [PiB, 1,3,6,8-tetrahydro-1,3,6,8-tetraoxo-benzo [lmn][3,8] phenanthroline-2,7-diacetic acid, 2,7-diethyl ester]	restricted HBV replication
